# Test results taken from ChEMBL document CHEMBL2401728, “An unexpected Dimroth rearrangement leading to annelated thieno[3,2-d][1,2,3]triazolo[1,5-a]pyrimidines with potent antitumor activity” (Eur J Med Chem, 2013).
# Legend:
# Type in all cases: functional
# SK-OV-3 [1] = assay: Cytotoxicity against human SKOV3 cells assessed as cellular growth at 10 uM after 48 hrs by SRB assay relative to control
# MCF7 [2] = assay: Cytotoxicity against human MCF7 cells assessed as cellular growth at 0.01 uM after 48 hrs by SRB assay relative to control
# HCT-15 [3] = assay: Cytotoxicity against human HCT15 cells assessed as cellular growth at 1 uM after 48 hrs by SRB assay relative to control
# SW-620 = assay: Cytotoxicity against human SW620 cells assessed as cellular growth at 10 uM after 48 hrs by SRB assay relative to control
# CCRF-CEM = assay: Cytotoxicity against human CCRF-CEM cells assessed as cellular growth at 0.01 uM after 48 hrs by SRB assay relative to control
# MDA-MB-435 [4] = assay: Cytotoxicity against human MDA-MB-435 cells assessed as cellular growth at 0.01 uM after 48 hrs by SRB assay relative to control
# SF-539 = assay: Cytotoxicity against human SF539 cells assessed as cellular growth at 1 uM after 48 hrs by SRB assay relative to control
# MDA-MB-231 [5] = assay: Cytotoxicity against human MDA-MB-231 cells assessed as cellular growth at 100 uM after 48 hrs by SRB assay relative to control
# SNB-75 = assay: Cytotoxicity against human SNB75 cells assessed as cellular growth at 0.01 uM after 48 hrs by SRB assay relative to control
# HL-60(TB) [6] = assay: Cytotoxicity against human HL-60(TB) cells after 48 hrs by SRB assay; settings: HL-60, 48 h
# UO-31 [7] = assay: Cytotoxicity against human UO31 cells assessed as cellular growth at 100 uM after 48 hrs by SRB assay relative to control
# OVCAR-4 = assay: Cytotoxicity against human OVCAR4 cells assessed as cellular growth at 1 uM after 48 hrs by SRB assay relative to control
# BT-549 [8] = assay: Cytotoxicity against human BT549 cells assessed as cellular growth at 100 uM after 48 hrs by SRB assay relative to control
# UO-31 [9] = assay: Cytotoxicity against human UO31 cells assessed as cellular growth at 1 uM after 48 hrs by SRB assay relative to control
# MCF7 [10] = assay: Cytotoxicity against human MCF7 cells assessed as cellular growth at 1 uM after 48 hrs by SRB assay relative to control
# NCI-H460 = assay: Cytotoxicity against human NCI-H460 cells assessed as cellular growth at 1 uM after 48 hrs by SRB assay relative to control
# BT-549 [11] = assay: Cytotoxicity against human BT549 cells assessed as cellular growth at 0.01 uM after 48 hrs by SRB assay relative to control
# HCT-15 [12] = assay: Cytotoxicity against human HCT15 cells after 48 hrs by SRB assay; settings: HCT-15, 48 h
# SNB-19 = assay: Cytotoxicity against human SNB19 cells assessed as cellular growth at 0.01 uM after 48 hrs by SRB assay relative to control
# K562 = assay: Cytotoxicity against human K562 cells after 48 hrs by SRB assay; settings: K562, 48 h
# SF-295 = assay: Cytotoxicity against human SF295 cells assessed as cellular growth at 0.1 uM after 48 hrs by SRB assay relative to control
# HOP-92 = assay: Cytotoxicity against human HOP92 cells assessed as cellular growth at 1 uM after 48 hrs by SRB assay relative to control
# OVCAR-8 = assay: Cytotoxicity against human OVCAR8 cells assessed as cellular growth at 100 uM after 48 hrs by SRB assay relative to control
# U-251 = assay: Cytotoxicity against human U251 cells after 48 hrs by SRB assay; settings: U-251, 48 h
# MDA-MB-435 [13] = assay: Cytotoxicity against human MDA-MB-435 cells assessed as cellular growth at 0.1 uM after 48 hrs by SRB assay relative to control
# SF-268 = assay: Cytotoxicity against human SF268 cells assessed as cellular growth at 1 uM after 48 hrs by SRB assay relative to control
# NCI-H322M = assay: Cytotoxicity against human NCI-H322M cells assessed as cellular growth at 0.1 uM after 48 hrs by SRB assay relative to control
# MDA-MB-231 [14] = assay: Cytotoxicity against human MDA-MB-231 cells assessed as cellular growth at 1 uM after 48 hrs by SRB assay relative to control
# SK-MEL-5 = assay: Cytotoxicity against human SK-MEL-5 cells assessed as cellular growth at 1 uM after 48 hrs by SRB assay relative to control
# LOX IMVI = assay: Cytotoxicity against human LOXIMVI cells assessed as cellular growth at 100 uM after 48 hrs by SRB assay relative to control
# SK-OV-3 [15] = assay: Cytotoxicity against human SKOV3 cells assessed as cellular growth at 0.01 uM after 48 hrs by SRB assay relative to control
# MDA-MB-468 = assay: Cytotoxicity against human MDA-MB-468 cells assessed as cellular growth at 0.1 uM after 48 hrs by SRB assay relative to control
# HL-60(TB) [16] = assay: Cytotoxicity against human HL-60(TB) cells assessed as cellular growth at 1 uM after 48 hrs by SRB assay relative to control
# COLO 205 = assay: Cytotoxicity against human COLO205 cells assessed as cellular growth at 0.1 uM after 48 hrs by SRB assay relative to control
# HCT-116 = assay: Cytotoxicity against human HCT116 cells after 48 hrs by SRB assay; settings: HCT-116, 48 h
# OVCAR-3 = assay: Cytotoxicity against human OVCAR3 cells assessed as cellular growth at 0.01 uM after 48 hrs by SRB assay relative to control
# UACC-62 = assay: Cytotoxicity against human UACC62 cells assessed as cellular growth at 100 uM after 48 hrs by SRB assay relative to control
# IGROV-1 = assay: Cytotoxicity against human IGROV1 cells assessed as cellular growth at 100 uM after 48 hrs by SRB assay relative to control
# [17] = read-out: LC50 (the source's name)
# [18] = read-out: pLC50 (the source's name) (converted)
structure (smiles),measurement,setting,value
O=C(O)CCCn1c2c(sc3ccccc32)c(=O)n2nnc(-c3ccccc3)c12,Activity,SK-OV-3 [1],90.82%
O=C(CCCn1c2c(sc3ccccc32)c(=O)n2nnc(-c3ccccc3)c12)NCCc1c[nH]cn1,Activity,MCF7 [2],98%
same,Activity,HCT-15 [3],29%
same,Activity,SW-620,-84.52%
same,Activity,SK-OV-3 [1],-6%
same,Activity,CCRF-CEM,56%
same,Activity,MDA-MB-435 [4],117%
same,Activity,SF-539,-6%
same,Activity,MDA-MB-231 [5],-100%
same,Activity,SNB-75,103%
same,GI50,HL-60(TB) [6]; read-out: GI50,0.0724 µM
same,CC50,HL-60(TB) [6]; [17],22.7 µM
same,TGI,HL-60(TB) [6]; read-out: TGI,3.21 µM
same,GI50,HL-60(TB) [6]; read-out: pGI50 (converted),0.0724 µM
same,CC50,HL-60(TB) [6]; [18],22.9 µM
same,TGI,HL-60(TB) [6]; read-out: pTGI (converted),3.24 µM
same,Activity,UO-31 [7],-61%
same,Activity,OVCAR-4,91%
same,Activity,BT-549 [8],-72%
same,Activity,UO-31 [9],69%
same,Activity,MCF7 [10],58%
same,Activity,NCI-H460,75%
same,Activity,BT-549 [11],100%
same,GI50,HCT-15 [12]; read-out: GI50,0.372 µM
same,CC50,HCT-15 [12]; [17],5.74 µM
same,TGI,HCT-15 [12]; read-out: TGI,1.9 µM
same,GI50,HCT-15 [12]; read-out: pGI50 (converted),0.372 µM
same,CC50,HCT-15 [12]; [18],5.75 µM
same,TGI,HCT-15 [12]; read-out: pTGI (converted),1.91 µM
same,Activity,SNB-19,94%
same,GI50,K562; read-out: GI50,0.0227 µM
same,CC50,K562; [17],5.18 µM
same,TGI,K562; read-out: TGI,1.02 µM
same,GI50,K562; read-out: pGI50 (converted),0.0229 µM
same,CC50,K562; [18],5.13 µM
same,TGI,K562; read-out: pTGI (converted),1.02 µM
same,Activity,SF-295,70%
same,Activity,HOP-92,93%
same,Activity,OVCAR-8,-40%
same,GI50,U-251; read-out: GI50,0.165 µM
same,CC50,U-251; [17],4.3 µM
same,TGI,U-251; read-out: TGI,1.85 µM
same,GI50,U-251; read-out: pGI50 (converted),0.166 µM
same,CC50,U-251; [18],4.27 µM
same,TGI,U-251; read-out: pTGI (converted),1.86 µM
same,Activity,MDA-MB-435 [13],69%
same,Activity,SF-268,79%
same,Activity,NCI-H322M,78%
same,Activity,MDA-MB-231 [14],101%
same,Activity,SK-MEL-5,70%
same,Activity,LOX IMVI,-100%
same,Activity,SK-OV-3 [15],108%
same,Activity,MDA-MB-468,97%
same,Activity,HL-60(TB) [16],29%
same,Activity,COLO 205,60%
same,GI50,HCT-116; read-out: GI50,< 0.01 µM
same,GI50,HCT-116; read-out: pGI50 (converted),0.01 µM
same,Activity,OVCAR-3,133%
same,Activity,UACC-62,-100%
same,Activity,IGROV-1,-63%
CN1CCN(CCCn2c3c(sc4ncccc43)c(=O)n3nnc(-c4ccccc4)c23)CC1,Activity,MCF7 [2],91%
same,Activity,HCT-15 [3],89%
same,Activity,SW-620,-63%
same,Activity,CCRF-CEM,109%
same,Activity,MDA-MB-435 [4],101%
same,Activity,SF-539,90%
same,Activity,MDA-MB-231 [5],-42%
same,Activity,SNB-75,76%
same,GI50,HL-60(TB) [6]; read-out: GI50,1.86 µM
same,CC50,HL-60(TB) [6]; [17],9.05 µM
same,TGI,HL-60(TB) [6]; read-out: TGI,4.1 µM
same,GI50,HL-60(TB) [6]; read-out: pGI50 (converted),1.86 µM
same,CC50,HL-60(TB) [6]; [18],9.12 µM
same,TGI,HL-60(TB) [6]; read-out: pTGI (converted),4.07 µM
same,Activity,UO-31 [7],-87%
same,Activity,OVCAR-4,93%
same,Activity,BT-549 [8],-81%
same,Activity,UO-31 [9],51%
same,Activity,MCF7 [10],82%
same,Activity,NCI-H460,95%
same,Activity,BT-549 [11],99%
same,GI50,HCT-15 [12]; read-out: GI50,1.82 µM
same,CC50,HCT-15 [12]; [17],8.26 µM
same,TGI,HCT-15 [12]; read-out: TGI,3.88 µM
same,GI50,HCT-15 [12]; read-out: pGI50 (converted),1.82 µM
same,CC50,HCT-15 [12]; [18],8.32 µM
same,TGI,HCT-15 [12]; read-out: pTGI (converted),3.89 µM
same,Activity,SNB-19,101%
same,GI50,K562; read-out: GI50,1.91 µM
same,CC50,K562; [17],> 100 µM
same,TGI,K562; read-out: TGI,4.74 µM
same,GI50,K562; read-out: pGI50 (converted),1.91 µM
same,CC50,K562; [18],> 100 µM
same,TGI,K562; read-out: pTGI (converted),4.79 µM
same,Activity,SF-295,94%
same,Activity,HOP-92,82%
same,Activity,OVCAR-8,-15%
same,GI50,U-251; read-out: GI50,1.82 µM
same,TGI,U-251; read-out: TGI,3.43 µM
same,GI50,U-251; read-out: pGI50 (converted),1.82 µM
same,TGI,U-251; read-out: pTGI (converted),3.47 µM
same,Activity,MDA-MB-435 [13],99%
same,Activity,SF-268,83%
same,Activity,NCI-H322M,80%
same,Activity,MDA-MB-231 [14],87%
same,Activity,SK-MEL-5,93%
same,Activity,LOX IMVI,-46%
same,Activity,SK-OV-3 [15],101%
same,Activity,MDA-MB-468,95%
same,Activity,HL-60(TB) [16],89%
same,Activity,COLO 205,89%
same,GI50,HCT-116; read-out: GI50,1.71 µM
same,CC50,HCT-116; [17],6.96 µM
same,TGI,HCT-116; read-out: TGI,3.45 µM
same,GI50,HCT-116; read-out: pGI50 (converted),1.7 µM
same,CC50,HCT-116; [18],6.92 µM
same,TGI,HCT-116; read-out: pTGI (converted),3.47 µM
same,Activity,OVCAR-3,100%
same,Activity,UACC-62,-74%
same,Activity,IGROV-1,-75%
